Counter-ions that a name gives are not always drawn. Like-named read-outs stand apart in the source and are kept apart here.
Legend:
5-HT1A receptor = molecular target: T1, 5-HT1A receptor (Rattus norvegicus, UniProt P19327); assay: Radioligand binding assay, 5-HT1A receptor ([3H]-8-OH-DPAT, rat cerebral cortex membranes); settings: for binding to the 5-HT1A receptor (in words): see table 1
T1 construct: The cerebral cortex was homogenized in 10 volumes of ice-cold Tris buffer; from tissue; host or cells: rat cerebral cortex membranes
T1 sequence (P19327 1-422): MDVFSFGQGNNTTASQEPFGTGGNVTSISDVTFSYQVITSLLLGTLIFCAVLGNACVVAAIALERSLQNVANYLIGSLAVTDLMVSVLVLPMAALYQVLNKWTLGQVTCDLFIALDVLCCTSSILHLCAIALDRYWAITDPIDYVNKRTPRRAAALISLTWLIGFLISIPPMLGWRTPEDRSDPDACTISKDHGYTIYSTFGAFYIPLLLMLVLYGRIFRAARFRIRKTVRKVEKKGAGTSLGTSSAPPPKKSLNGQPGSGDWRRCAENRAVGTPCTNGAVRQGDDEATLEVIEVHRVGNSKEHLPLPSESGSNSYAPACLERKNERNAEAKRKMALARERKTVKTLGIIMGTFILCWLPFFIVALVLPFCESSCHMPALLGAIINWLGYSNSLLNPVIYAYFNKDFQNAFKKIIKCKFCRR
Description: (§1) For all receptor binding assays, male Sprague-Dawley rats (Rattus norvegicus albinus), weighing 180-200 g, were killed by decapitation and the brains rapidly removed and dissected. Tissues were stored at −80° C. for subsequent use and homogenized on a Polytron PT-10 homogenizer. Membrane suspensions were centrifuged on a Beckman J2-HS instrument.
The cerebral cortex was homogenized in 10 volumes of ice-cold Tris buffer (50 mM Tris-HCl, pH 7.7 at 25° C.) and centrifuged at 28000 g for 15 min. The membrane pellet was washed twice by resuspension and centrifugation. After the second wash the resuspended pellet was incubated at 37° C. for 10 min. Membranes were then collected by centrifugation and the final pellet was resuspended in 50 mM Tris-HCl, 5 mM MgSO4, and 0.5 mM EDTA buffer (pH 7.4 at 37° C.). Fractions of 100 μL of the final membrane suspension (about 1 mg of protein) were incubated at 37° C. for 15 min with 0.6 nM [^3]-8-OH-DPAT (133 Ci/mmol), in the presence or absence of the competing drug, in a final volume of 1.1 mL of assay buffer (50 mM Tris-HCl, 10 nM clonidine, 30 nM prazosin, pH 7.4 at 37° C.). Nonspecific binding was determined with 10 μM 5-HT.
(§2) For all binding assays, competing drug, nonspecific, total and radioligand bindings were defined in triplicate. Incubation was terminated by rapid vacuum filtration through Whatman GF/B filters, presoaked in 0.05% poly(ethylenimine), using a Brandel cell harvester. The filters were then washed with the assay buffer, dried and placed in poly(ethylene) vials to which were added 4 mL of a scintillation cocktail (Aquasol). The radioactivity bound to the filters was measured by liquid scintillation spectrometry. The data were analyzed by an iterative curve-fitting procedure (program Prism, Graph Pad), which provided IC50, Ki, and r^2 values for test compounds, Ki values being calculated from the Cheng and Prusoff equation. The protein concentrations of the rat cerebral cortex and the rat striatum were determined by the method of Lowry, using bovine serum albumin as the standard.

α1 adrenoceptor = assay: Radioligand binding assay, α1 adrenoceptor ([3H]prazosin, rat cerebral cortex membranes); settings: for Ki / percent value (α1): rat cerebral cortex membranes; for Ki: 0.2 nM [3H]prazosin, hydrochloride salts, read-out: Ki ± SEM (α1); for percent value (α1): [3H]prazosin, footnote to * not given; for binding to the α1 adrenoceptor (in words): see table 1
Description: as §1
The cerebral cortex was homogenized in 20 volumes of ice-cold buffer (50 mM Tris-HCl, 10 mM MgCl2, pH 7.4 at 25° C.) and centrifuged at 30000 g for 15 min. Pellets were washed twice by resuspension and centrifugation. Final pellets were resuspended in the same buffer. Fractions of the final membrane suspension (about 250 μg of protein) were incubated at 25° C. for 30 min with 0.2 nM [^3H]prazosin (23 Ci/mmol), in the presence or absence of six concentrations of the competing drug, in a final volume of 2 mL of buffer. Nonspecific binding was determined with 10 μM phentolamine.
as §2

[1] = rat cerebral cortex membranes, 0.6 nM [3H]-8-OH-DPAT, hydrochloride salts, read-out: Ki ± SEM (5-HT1A)

Ki (5-HT1A receptor; [1])	Ki (α1 adrenoceptor)	percent value (α1) (α1 adrenoceptor)	Structure (SMILES)	also measured
15.3 ± 1.8 nM	34.4 ± 1.2 nM	–	C[C@H]1CN(c2cccc3ccccc23)CCN1CCCCN1CC(=O)N2CCCC2C1=O (mixture of isomers) [(b), (2S, 8aRS)-2-[4-[4-(Naphth-1-yl)-2-methylpiperazin-1-yl]butyl]-1,4-dioxoperhydropyrrolo[1,2-a]pyrazine]	–
11.7 ± 3.4 nM	–	76%*	C[C@@H]1CN(c2cccc(Cl)c2)CCN1CCCN1C(=O)C2CCCN2C1=O (mixture of isomers) [(i), (2R,7aRS)-(−)-2-[3-[4-(3-Chlorophenyl)-2-methylpiperazin-1-yl]propyl]-1,3-dioxoperhydropyrrolo[1,2-c]imidazole]	–
2.4 ± 0.3 nM	–	87%*	CC[C@@H]1CN(c2cccc3ccccc23)CCN1CCCCN1C(=O)C2CCCN2C1=O (mixture of isomers) [(l), (2R,7aRS)-(−)-2-[4-[2-Ethyl-4-(naphth-1-yl)piperazin-1-yl]butyl]-1,3-dioxoperhydropyrrolo [1,2-c]imidazole]	–
21 ± 3 nM	–	64%*	CC[C@@H]1CN(c2cccc(OC)c2)CCN1CCCCN1C(=O)C2CCCN2C1=O (mixture of isomers) [(o), (2R,7aRS)-(−)-2-[4-[2-Ethyl-4-(3-methoxyphenyl)piperazin-1-yl]butyl]-1,3-dioxoperhydropyrrolo[1,2-c]imidazole]	–
22.1 ± 0.1 nM	–	62%*	C[C@H]1CN(c2ccccc2)CCN1CCCCN1C(=O)C2CCCN2C1=O (mixture of isomers) [(q), (2S,7aRS)-(+)-2-[4-[2-Methyl-4-phenylpiperazin-1-yl]butyl]-1,3-dioxoperhydropyrrolo[1,2-c]imidazole]	–
4.1 ± 0.3 nM	> 1000 nM	–	C[C@H]1CN(c2cccc3nc[nH]c23)CCN1CCCCN1C(=O)C2CCCN2C1=O (mixture of isomers) [(r), (2S,7aRS)-(+)-2-[4-[4-(Benzimidazol-4-yl)-2-methylpiperazin-1-yl]butyl]-1,3-dioxoperhydropyrrolo[1,2-c]imidazole]	–
–	–	66%*	C[C@H]1CN(c2ccc([N+](=O)[O-])c3ccccc23)CCN1CCCCN1C(=O)C2CCCN2C1=O (mixture of isomers) [(s), (2S,7aRS)-(+)-2-[4-[2-Methyl-4-(4-nitronaphth-1-yl)piperazin-1-yl]butyl]-1,3-dioxoperhydropyrrolo[1,2-c]imidazole]	percent value marked * in column Ki ± SEM (5-HT1A) (5-HT1A receptor; rat cerebral cortex membranes, [3H]-8-OH-DPAT, footnote to * not given): 87%*
9.5 ± 2.2 nM	> 1000 nM	–	C[C@@H]1CN(c2cccc3ccccc23)CCN1CN1CC(=O)N2CCC[C@@H]2C1=O [(c), (2R,8aR)-2-[[4-(Naphth-1-yl)-2-methylpiperazin-1-yl]methyl]-1,4-dioxoperhydropyrrolo[1,2-a]pyrazine]	–
2.5 ± 0.1 nM	> 1000 nM	–	C[C@H]1CN(c2cccc3ccccc23)CCN1CN1CC(=O)N2CCC[C@H]2C1=O [(d), (2S,8aS)-2-[[4-(Naphth-1-yl)-2-methylpiperazin-1-yl]methyl]-1,4-dioxoperhydropyrrolo[1,2-a]pyrazine]	–
1.6 ± 0.4 nM	–	75%*	C[C@H]1CN(c2cccc3ccoc23)CCN1CCCCN1C(=O)[C@@H]2CCCN2C1=O [(n), (2S,7aS)-(+)-2-[4-[4-(1-Benzofuran-7-yl)-2-methylpiperazin-1-yl]butyl]-1,3-dioxoperhydropyrrolo[1,2-c]imidazole]	–
0.5 ± 0.2 nM	8 ± 1.7 nM	–	O=C1C2CCCN2C(=O)CN1CCCCN1CCN(c2cccc3ccccc23)CC1 (centres unmarked) [Compound (g), 2-[4-[4-(Naphth-1-yl)piperazin-1-yl]butyl]-1,4-dioxoperhydropyrrolo[1,2-a]pyrazine]	binding to the 5-HT1A receptor (in words) (5-HT1A receptor): picomolar range; binding to the α1 adrenoceptor (in words) (α1 adrenoceptor): low nanomolar range

More lines, now with the values behind:

Structure (SMILES)	Ki (5-HT1A receptor; [1])	Ki (α1 adrenoceptor)	percent value (α1) (α1 adrenoceptor)	also measured
O=C1C2CCCN2C(=O)CN1CCCCN1CCN(c2cccc3ccccc23)CC1 (centres unmarked) (as salt: hydrochloride) [Compound (g), 2-[4-[4-(Naphth-1-yl)piperazin-1-yl]butyl]-1,4-dioxoperhydropyrrolo[1,2-a]pyrazine]	–	–	–	melting point: 277 to 280 °C (dec.)
O=C1C2CCCN2C(=O)CN1CCCCN1CCN(c2cccc3c2OCCCO3)CC1 (centres unmarked) (as salt: hydrochloride) [Compound (h), 2-[4-[4-(3,4-Dihydro-2H-1,5-benzodioxepin-6-yl)piperazin-1-yl]butyl]-1,4-dioxoperhydropyrrolo[1,2-a]pyrazine]	–	–	–	melting point: 212 to 213 °C (dec.)
C[C@@H]1CN(c2cccc3ccccc23)CCN1CCCCN1CC(=O)N2CCCC2C1=O (mixture of isomers) [(a), (2R, 8aRS)-2-[4-[4-(Naphth-1-yl)-2-methylpiperazin-1-yl]butyl]-1,4-dioxoperhydropyrrolo[1,2-a]pyrazine]	4.2 ± 0.9 nM	20.1 ± 0.8 nM	–	–
COc1cccc(N2CCN(CCCN3C(=O)C4CCCN4C3=O)[C@@H](C)C2)c1 (mixture of isomers) [(j), (2S,7aRS)-(+)-2-[3-[4-(3-Methoxyphenyl)-2-methylpiperazin-1-yl]propyl]-1,3-dioxoperhydropyrrolo[1,2-c]imidazole]	21.9 ± 5.1 nM	–	56%*	–
C[C@H]1CN(c2cccc3ccoc23)CCN1CCCN1C(=O)C2CCCN2C1=O (mixture of isomers) [(k), (2S,7aRS)-(−)-2-[3-[4-(1-Benzofuran-7-yl)-2-methylpiperazin-1-yl]propyl]-1,3-dioxoperhydropyrrolo[1,2-c]imidazole]	6.7 ± 0.5 nM	–	64%*	–
C[C@@H]1CN(c2cccc3nc[nH]c23)CCN1CCCCN1C(=O)C2CCCN2C1=O (mixture of isomers) [(m), (2R,7aRS)-(−)-2-[4-[4-(Benzimidazol-4-yl)-2-methylpiperazin-1-yl]butyl]-1,3-dioxoperhydropyrrolo[1,2-c]imidazole]	2.3 ± 0.3 nM	> 1000 nM	–	–
Cc1ccc(N2CCN(CCCCN3C(=O)C4CCCN4C3=O)[C@@H](C)C2)c2ccccc12 (mixture of isomers) [(p), (2S,7aRS)-(+)-2-[4-[2-Methyl-4-(4-methylnaphth-1-yl)piperazin-1-yl]butyl]-1,3-dioxoperhydropyrrolo[1,2-c]imidazole]	–	–	75%*	Ki (5-HT1A receptor): 15.3 ± 0.8 nM
C[C@@H]1CN(c2cccc3ccccc23)CCN1CN1CC(=O)N2CCC[C@H]2C1=O [(e), (2R,8aS)-2-[[4-(Naphth-1-yl)-2-methylpiperazin-1-yl]methyl]-1,4-dioxoperhydropyrrolo[1,2-a]pyrazine]	6.3 ± 0.2 nM	> 1000 nM	–	–
C[C@H]1CN(c2cccc3ccccc23)CCN1CN1CC(=O)N2CCC[C@@H]2C1=O [(f), (2S,8aR)-2-[[4-(Naphth-1-yl)-2-methylpiperazin-1-yl]methyl]-1,4-dioxoperhydropyrrolo[1,2-a]pyrazine]	6.4 ± 0.1 nM	> 1000 nM	–	–
O=C1C2CCCN2C(=O)CN1CCCCN1CCN(c2cccc3c2OCCCO3)CC1 (centres unmarked) [Compound (h), 2-[4-[4-(3,4-Dihydro-2H-1,5-benzodioxepin-6-yl)piperazin-1-yl]butyl]-1,4-dioxoperhydropyrrolo[1,2-a]pyrazine]	3.1 ± 0.9 nM	348 ± 21 nM	–	binding to the 5-HT1A receptor (in words) (5-HT1A receptor): low nanomolar range; binding to the α1 adrenoceptor (in words) (α1 adrenoceptor): nanomolar range
